US5599791A, “Amides of antibiotic GE 2270 factors” (Gruppo Lepetit SPA, priority 1991, dated 1997)

What was measured:
[1] = tested on: Prop. acnes L1014 ATCC 6919; experiment: MIC, agar dilution; type: cell-based, P. acnes; conditions: inocula 10^4 /10^5 CFU/spot, 48 h, 37° C., anaerobic gas mixture
Procedure: (§1) MIC for Propionibacterium aches, and Bacteroides fragilis are determined by agar dilution (inocula 10^4 /10^5 CFU/spot). MIC for other organisms are determined by microbroth dilution (inocula 10^4 to 10^5 CFU/ml). Incubation times are 18-24 h, except for Haemophilus influenzae, P. acnes, B. fragilis (48 h). All organisms are incubated at 37° C.; H. influenzae is incubated in a 5% CO2 atmosphere, anaerobes in an anaerobic gas mixture. Media used are: Iso-Sensitest broth (Oxoid) (Staphylococci, Streptococcus faecalis, Escherichia coli, Proteus vulgaris; brain heart infusion broth (Difco)+1% Supplement C (Difco) (H. influenzae); The minimal inhibitory concentrations (MIC, microgram/ml) for some microorganisms are reported below in Table VII.

Esch. coli L47 SKF 12140 = experiment: MIC, microbroth dilution; type: cell-based, Escherichia coli; conditions: inocula 10^4 to 10^5 CFU/ml, Iso-Sensitest broth, 18-24 h, 37° C.
Procedure: as §1

[2] = tested on: Haemophilus Influenzae type B; experiment: MIC, microbroth dilution; type: cell-based; conditions: brain heart infusion broth +1% Supplement C, 48 h, 37° C., 5% CO2
Procedure: as §1

Staph. aureus L165 Tour = experiment: MIC, microbroth dilution; type: cell-based; conditions: inocula 10^4 to 10^5 CFU/ml, Iso-Sensitest broth, 18-24 h, 37° C.
Procedure: as §1

[3] = tested on: Staph. epidermidis L147 ATCC 12228; experiment: MIC, microbroth dilution; type: cell-based; conditions: inocula 10^4 to 10^5 CFU/ml, Iso-Sensitest broth, 18-24 h, 37° C.
Procedure: as §1

[4] = tested on: Strep. pneumoniae L44 UC41; experiment: MIC, microbroth dilution; type: cell-based; conditions: inocula 10^4 to 10^5 CFU/ml, 18-24 h, 37° C.
Procedure: as §1

Staph. haemolyticus L602 = experiment: MIC, microbroth dilution; type: cell-based; conditions: inocula 10^4 to 10^5 CFU/ml, Iso-Sensitest broth, 18-24 h, 37° C.
Procedure: as §1

[5] = tested on: Bact. fragilis L1010 ATCC 23745; experiment: MIC, agar dilution; type: cell-based, Bacteroides fragilis; conditions: inocula 10^4 /10^5 CFU/spot, 48 h, 37° C., anaerobic gas mixture
Procedure: as §1

Prot. vulgaris ATCC 881 = experiment: MIC, microbroth dilution; type: cell-based, Proteus vulgaris; conditions: inocula 10^4 to 10^5 CFU/ml, Iso-Sensitest broth, 18-24 h, 37° C.
Procedure: as §1

[6] = tested on: Strep. faecalis L149 ATCC 7080; experiment: MIC, microbroth dilution; type: cell-based, Streptococcus faecalis; conditions: inocula 10^4 to 10^5 CFU/ml, Iso-Sensitest broth, 18-24 h, 37° C.
Procedure: as §1

How did the MIC [1] turn out when `CNC(=O)CC1NC(=O)c2nc(sc2COC)C(C(C)C)NC(=O)c2csc(n2)-c2ccc(-c3nc(C(=O)NCCNCCC(=O)O)cs3)nc2-c2csc(n2)-c2csc(n2)C(C(O)c2ccccc2)NC(=O)CNC(=O)c2nc1sc2C` (stereo not drawn) [Compound 38] was run?
Its MIC is 0.25 microgram/ml.

What about the MIC (Esch. coli L47 SKF 12140) of the same compound?
The MIC was over 128 microgram/ml.

And the MIC [2]?
Its MIC is over 128 microgram/ml.

And the MIC (Staph. aureus L165 Tour)?
Its MIC is 32 microgram/ml.

And the MIC [3]?
The MIC was 32 microgram/ml.

What about the MIC [4] of the same compound?
Its MIC is over 128 microgram/ml.

And the MIC (Staph. haemolyticus L602)?
Its MIC is 64 microgram/ml.

And the MIC [5]?
The MIC was over 128 microgram/ml.

What about the MIC (Prot. vulgaris ATCC 881) of the same compound?
Its MIC is over 128 microgram/ml.

And the MIC [6]?
The MIC was 16 microgram/ml.

How did the MIC [1] turn out when `CNC(=O)CC1NC(=O)c2nc(sc2COC)C(C(C)C)NC(=O)c2csc(n2)-c2ccc(-c3nc(C(=O)NCCSCCC(=O)O)cs3)nc2-c2csc(n2)-c2csc(n2)C(C(O)c2ccccc2)NC(=O)CNC(=O)c2nc1sc2C` (stereo not drawn) [Compound 39] was run?
Its MIC is at most 0.13 microgram/ml.

And the MIC (Esch. coli L47 SKF 12140)?
Its MIC is over 128 microgram/ml.

What about the MIC [2] of the same compound?
The MIC was 1 microgram/ml.

What about the MIC (Staph. aureus L165 Tour) of the same compound?
The MIC was 0.13 microgram/ml.

What about the MIC [3] of the same compound?
The MIC was 0.25 microgram/ml.

And the MIC [4]?
Its MIC is 4 microgram/ml.

And the MIC (Staph. haemolyticus L602)?
The MIC was 2 microgram/ml.

And the MIC [5]?
Its MIC is 8 microgram/ml.

What about the MIC (Prot. vulgaris ATCC 881) of the same compound?
Its MIC is over 128 microgram/ml.

What about the MIC [6] of the same compound?
Its MIC is at most 0.13 microgram/ml.

With `CNC(=O)CC1NC(=O)c2nc(sc2COC)C(C(C)C)NC(=O)c2csc(n2)-c2ccc(-c3nc(C(=O)NCCOCCC(=O)O)cs3)nc2-c2csc(n2)-c2csc(n2)C(C(O)c2ccccc2)NC(=O)CNC(=O)c2nc1sc2C` (stereo not drawn) [Compound 41] as the compound, how does the MIC [1] read?
Its MIC is at most 0.13 microgram/ml.

What about the MIC (Esch. coli L47 SKF 12140) of the same compound?
The MIC was over 128 microgram/ml.

What about the MIC [2] of the same compound?
Its MIC is 1 microgram/ml.

And the MIC (Staph. aureus L165 Tour)?
Its MIC is 0.25 microgram/ml.

And the MIC [3]?
The MIC was 0.5 microgram/ml.

What about the MIC [4] of the same compound?
The MIC was 2 microgram/ml.

What about the MIC (Staph. haemolyticus L602) of the same compound?
Its MIC is 1 microgram/ml.

And the MIC [5]?
Its MIC is 4 microgram/ml.

What about the MIC (Prot. vulgaris ATCC 881) of the same compound?
The MIC was over 128 microgram/ml.

And the MIC [6]?
Its MIC is at most 0.13 microgram/ml.

What does the source list for `CNC(=O)CC1NC(=O)c2nc(sc2COC)C(C(C)C)NC(=O)c2csc(n2)-c2ccc(-c3nc(C(=O)NCCCCCC(=O)O)cs3)nc2-c2csc(n2)-c2csc(n2)C(C(O)c2ccccc2)NC(=O)CNC(=O)c2nc1sc2CO` (stereo not drawn) [Compound 42]?
MIC [1]: 0.016 microgram/ml; MIC (Esch. coli L47 SKF 12140): > 128 microgram/ml; MIC [2]: 4 microgram/ml; MIC (Staph. aureus L165 Tour): 0,13 microgram/ml; MIC [3]: 0,13 microgram/ml; MIC [4]: 1 microgram/ml; MIC (Staph. haemolyticus L602): 0.5 microgram/ml; MIC [5]: > 128 microgram/ml; MIC (Prot. vulgaris ATCC 881): > 128 microgram/ml; MIC [6]: 0.13 microgram/ml

What does the source list for `Cc1sc2nc1C(=O)NCC(=O)NC(C(O)c1ccccc1)c1nc(cs1)-c1nc(cs1)-c1nc(-c3nc(C(=O)NCCCCCC(=O)O)cs3)ccc1-c1nc(cs1)C(=O)NC(C(C)C)c1nc(cs1)C(=O)NC2CC(N)=O` (stereo not drawn) [Compound 43]?
MIC [1]: 0.016 microgram/ml; MIC (Esch. coli L47 SKF 12140): > 128 microgram/ml; MIC [2]: > 128 microgram/ml; MIC (Staph. aureus L165 Tour): 0.13 microgram/ml; MIC [3]: 0.5 microgram/ml; MIC [4]: 0.5 microgram/ml; MIC (Staph. haemolyticus L602): 0.5 microgram/ml; MIC [5]: > 128 microgram/ml; MIC (Prot. vulgaris ATCC 881): > 128 microgram/ml; MIC [6]: 0.13 microgram/ml

`CNC(=O)CC1NC(=O)c2nc(sc2CO)C(C(C)C)NC(=O)c2csc(n2)-c2ccc(-c3nc(C(=O)NCCCCCC(=O)O)cs3)nc2-c2csc(n2)-c2csc(n2)C(C(O)c2ccccc2)NC(=O)CNC(=O)c2nc1sc2C` (stereo not drawn) [Compound 44] was tested. Which MIC [1] did it give?
Its MIC is 0.016 microgram/ml.

What about the MIC (Esch. coli L47 SKF 12140) of the same compound?
Its MIC is over 128 microgram/ml.

And the MIC [2]?
The MIC was over 128 microgram/ml.

What about the MIC (Staph. aureus L165 Tour) of the same compound?
The MIC was 0.13 microgram/ml.

And the MIC [3]?
Its MIC is 0.5 microgram/ml.

What about the MIC [4] of the same compound?
The MIC was 1 microgram/ml.

And the MIC (Staph. haemolyticus L602)?
The MIC was 1 microgram/ml.

And the MIC [5]?
Its MIC is over 128 microgram/ml.

What about the MIC (Prot. vulgaris ATCC 881) of the same compound?
Its MIC is over 128 microgram/ml.

And the MIC [6]?
Its MIC is 0.06 microgram/ml.
